Experimental data: PMC12173412 (PLOS Neglected Tropical Diseases, 2025)

Assays:
[1] = biological target: Odor Binding Protein-like (OBPL); set-up: species or system Haemaphysalis longicornis
[2] = biological target: Niemann-Pick type C2 (NPC2); format: binding, Haemaphysalis longicornis
[3] = biological target: Odor Binding Protein-like (OBPL); set-up: species or system Haemaphysalis longicornis; remark: listed apart in the source
[4] = biological target: Niemann-Pick type C2 (NPC2); format: binding, Haemaphysalis longicornis; remark: listed apart in the source

Row | SMILES | Kd [1] [µM] | Kd [2] [µM] | Ki [3] [µM] | Ki [4] [µM]
1 | c1ccc(Nc2cccc3ccccc23)cc1 [1-NPN] | 2.56 | 3.18 |  | 
2 | Cc1c[nH]c2ccccc12 [3-methylindole] |  |  | 4.19 | 15.4
3 | c1ccc2[nH]ccc2c1 [indole] |  |  | 2.26 | 10.3
